Laboratory results taken from patent US20230241158A1, “Hydrophilic Degradable Microspheres for Local Delivering of Glycopeptide Antibiotics and Polycationic Peptide Antibiotics” (priority 2020, published 2023).

Parameters: species or system White New Zealand male rabbits
Conditions: rabbit, in vivo, sc, 18 mg/kg
Description: The study was performed in 6 White New Zealand male rabbits (body weight: 3.63±0.17 kg; min-max 3.47-3.88 kg) and included MS1 and MS2 loaded at 40 mg/mL of teicoplanin (Sigma, T-0578).
Briefly, teicoplanin was reconstituted in water for injection at the concentration of […] (100 mL). Sterile dry beads (≈6 mL in 5% glucose) were hydrated/loaded in the teicoplanin solution (20 mL) with continuous agitation on rotating wheel (≈30 rpm). After 20 min, the supernatant was retrieved and kept for drug quantification. Microspheres (MS1 and MS2) were then washed in water, and kept on shell until the time of administration. At the time of injection, MS were suspended in saline and the appropriate volume of bead (≈4 mL) suspension was sampled for injection at a ratio of 2:1 MS/saline (Table 7). Each microsphere was administered once subcutaneously at the same dose of drug at two injection sites to 2 animals. Teicoplanin control (Sigma, T-0578) was administered once in one animal and repeated daily in another animal. […]
A vascular access was gained in the auricular artery for blood sampling and in auricular vein for perfusion. […] The lowest limit of quantification of the method (LOQ) is 2.0 mg/L. The results of plasmatic assay of teicoplanin are reported in table 8 and in FIG. 7.

For teicoplanin [Injectable teicoplanin], the Teicoplanin serum concentration was <2.0 mg/L.
